# Experimental data reported in US11655235B2, “Pyrrolidine and piperidine compounds” (YUHAN CORPORATION, priority 2019, dated 2023).
# “And” between values parts separate entries of the source, which are not always exact repeats. Equal entries are not always repeated.
# Target: T1, recombinant human PREP (Homo sapiens, UniProt P48147)
# T1 construct: purchased R&D System
# T1 sequence (P48147 1-710): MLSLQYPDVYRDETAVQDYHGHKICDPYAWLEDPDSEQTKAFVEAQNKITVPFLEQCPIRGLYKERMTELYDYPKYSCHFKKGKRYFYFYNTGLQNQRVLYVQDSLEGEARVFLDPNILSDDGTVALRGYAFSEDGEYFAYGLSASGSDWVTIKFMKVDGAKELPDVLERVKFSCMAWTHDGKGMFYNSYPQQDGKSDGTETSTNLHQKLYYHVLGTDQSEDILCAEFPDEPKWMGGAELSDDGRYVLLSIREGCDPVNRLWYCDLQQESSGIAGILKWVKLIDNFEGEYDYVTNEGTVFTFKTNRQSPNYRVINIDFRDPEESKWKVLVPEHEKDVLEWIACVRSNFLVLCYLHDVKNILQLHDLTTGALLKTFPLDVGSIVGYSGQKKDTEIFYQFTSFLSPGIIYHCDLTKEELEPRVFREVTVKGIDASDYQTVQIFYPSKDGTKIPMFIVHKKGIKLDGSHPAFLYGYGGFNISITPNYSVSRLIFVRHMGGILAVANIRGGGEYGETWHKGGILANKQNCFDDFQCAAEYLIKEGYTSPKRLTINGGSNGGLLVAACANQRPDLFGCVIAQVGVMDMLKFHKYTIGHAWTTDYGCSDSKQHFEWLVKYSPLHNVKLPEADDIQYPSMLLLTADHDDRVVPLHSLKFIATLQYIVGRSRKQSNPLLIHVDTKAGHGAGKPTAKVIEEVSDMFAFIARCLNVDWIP
# Test: PREP inhibition, fluorogenic substrate Z-Gly-Pro-AMC
# Assay type: biochemical
# Conditions: Inhibitory Activity (IC50, nM) PREP, recombinant human PREP
# Outline: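 Enzyme per reaction: 50 ng DPP9, 20 ng DPP8, 10 ng each DPP7 and PREP. Compounds were serially diluted (8 points, up to 0.5% DMSO) and incubated at 25 °C.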
row,IC50,SMILES
1,4290 nM,"N#C[C@@H]1C[C@H](F)CN1C(=O)CN1CC[C@H](Nc2cccc3ncccc23)C1 [Example 228, (2S,4S)-4-fluoro-1-[2-[(3S)-3-(5-quinolylamino)pyrrolidin-1-yl]acetyl]pyrrolidine-2-carbonitrile]"
2,13700 nM,"N#Cc1cnc2cccc(N[C@H]3CCN(CC(=O)N4CCC[C@H]4C#N)C3)c2c1 [Example 232, 5-[[(3S)-1-[2-oxo-2-[(2S)-2-cyanopyrrolidin-1-yl]ethyl]pyrrolidin-3-yl]amino]quinoline-3-carbonitrile]"
3,11500 nM,"COc1cnc2cccc(N[C@H]3CCN(CC(=O)N4CCC[C@H]4C#N)C3)c2c1 [Example 233, (2S)-1-[2-[(3S)-3-[(3-methoxy-5-quinolyl)amino]pyrrolidin-1-yl]acetyl]pyrrolidine-2-carbonitrile]"
4,11100 nM,"N#C[C@@H]1CCCN1C(=O)CN1CC[C@H](Nc2ccc(F)c3ncccc23)C1 [Example 244, (2S)-1-[2-[(3S)-3-[(8-fluoro-5-quinolyl)amino]pyrrolidin-1-yl]acetyl]pyrrolidine-2-carbonitrile]"
5,9470 nM,"N#C[C@@H]1CCCN1C(=O)CN1CC[C@H](Nc2ccc(C(F)(F)F)c3ncccc23)C1 [Example 245, (2S)-1-[2-[(3S)-3-[[8-(trifluoromethyl)-5-quinolyl]amino]pyrrolidin-1-yl]acetyl]pyrrolidine-2-carbonitrile]"
6,2210 nM,"N#C[C@@H]1C[C@H](F)CN1C(=O)CN1CC[C@H](Nc2cccc3ncc(F)cc23)C1 [Example 255, (2S,4S)-4-fluoro-1-[2-[(3S)-3-[(3-fluoro-5-quinolyl)amino]pyrrolidin-1-yl]acetyl]pyrrolidine-2-carbonitrile]"
7,3470 nM,"COc1ccc(N[C@H]2CCN(CC(=O)N3C[C@@H](F)C[C@H]3C#N)C2)c2cccnc12 [Example 263, (2S,4S)-4-fluoro-1-[2-[(3S)-3-[(8-methoxy-5-quinolyl)amino]pyrrolidin-1-yl]acetyl]pyrrolidine-2-carbonitrile]"
8,3170 nM,"N#C[C@@H]1C[C@H](F)CN1C(=O)CN1CC[C@H](Nc2ccc(OC(F)(F)F)c3ncccc23)C1 [Example 266, (2S,4S)-4-fluoro-1-[2-[(3S)-3-[[8-(trifluoromethoxy)-5-quinolyl]amino]pyrrolidin-1-yl]acetyl]pyrrolidine-2-carbonitrile]"
9,3520 nM,"N#C[C@@H]1C[C@H](F)CN1C(=O)CN1CC[C@H](Nc2ccc(OCc3ccccc3)c3ncccc23)C1 [Example 268, (2S,4S)-4-fluoro-1-[2-[(3S)-3-[(8-benzyloxy-5-quinolyl)amino]pyrrolidin-1-yl]acetyl]pyrrolidine-2-carbonitrile]"
10,2300 nM and 2780 nM,"N#C[C@@H]1C[C@H](F)CN1C(=O)CN1CCC(Nc2ccc(C(F)(F)F)c3ncccc23)CC1 [Example 334, (2S,4S)-4-fluoro-1-[2-[4-[[8-(trifluoromethyl)-5-quinolyl]amino]-1-piperidyl]acetyl]pyrrolidine-2-carbonitrile]"
11,4580 nM,"N#C[C@@H]1C[C@H](F)CN1C(=O)CN1CCC(Nc2ccc(OC(F)(F)F)c3ncccc23)CC1 [Example 347, (2S,4S)-4-fluoro-1-[2-[4-[[8-(trifluoromethoxy)-5-quinolyl]amino]-1-piperidyl]acetyl]pyrrolidine-2-carbonitrile]"
12,10000 nM,"COc1cnc2cccc(NC3CCN(CC(=O)N4C[C@@H](F)C[C@H]4C#N)CC3)c2c1 [Example 348, (2S,4S)-4-fluoro-1-[2-[4-[(3-methoxy-5-quinolyl)amino]-1-piperidyl]acetyl]pyrrolidine-2-carbonitrile]"
13,5200 nM,"N#C[C@@H]1C[C@H](F)CN1C(=O)CN1CCC(Nc2cccc3ncc(F)cc23)CC1 [Example 349, (2S,4S)-4-fluoro-1-[2-[4-[(3-fluoro-5-quinolyl)amino]-1-piperidyl]acetyl]pyrrolidine-2-carbonitrile]"
14,10700 nM,"N#C[C@@H]1C[C@H](F)CN1C(=O)CN1CCC(Nc2cccc3cnc(Cl)cc23)CC1 [Example 352, (2S,4S)-1-[2-[4-[(3-chloro-5-isoquinolyl)amino]-1-piperidyl]acetyl]-4-fluoro-pyrrolidine-2-carbonitrile]"
15,14200 nM,"COc1cc2c(NC3CCN(CC(=O)N4C[C@@H](F)C[C@H]4C#N)CC3)cccc2cn1 [Example 355, (2S,4S)-4-fluoro-1-[2-[4-[(3-methoxy-5-isoquinolyl)amino]-1-piperidyl]acetyl]pyrrolidine-2-carbonitrile]"
16,3170 nM,"Cc1ccc2nccc(OC3CCN(CC(=O)N4C[C@@H](F)C[C@H]4C#N)CC3)c2c1 [Example 410, (2S,4S)-4-fluoro-1-[2-[4-[(6-methyl-4-quinolyl)oxy]-1-piperidyl]acetyl]pyrrolidine-2-carbonitrile]"

row,SMILES,IC50
1,"N#Cc1ccc(N[C@H]2CCN(CC(=O)N3CCC[C@H]3C#N)C2)c2cccnc12 [Example 247, 5-[[(3S)-1-[2-oxo-2-[(2S)-2-cyanopyrrolidin-1-yl]ethyl]pyrrolidin-3-yl]amino]quinoline-8-carbonitrile]",> 10000 nM
